Reference: patent US8153593B2, “Transglutaminase inhibitors and methods of use thereof” (The Board of Trustees of the Leland Stanford Junior …, priority 2003, dated 2012)
*1 amine or outer side, *2 acyl side, *3 side chain or, on linkers, in order; H or OH if unused. Where a SMILES comes first, the peptide text is derived from it. [ ]: non-standard residue; d: D form. X2 = [N-]=[N+]=CC(=O)CC[C@@H](N[*:1])C(=O)[*:2]; DON = [N-]=[N+]=CC(=O)CC[C@H](N)C(=O)O

Assays:
human TG2 [1] = target: T1, human TG2 (Homo sapiens, UniProt P21980); assay: TG2 inhibition kinetics by the method of Hausch et al.; format: biochemical; design: ki/KI: unit not given here
T1 sequence (P21980 1-687): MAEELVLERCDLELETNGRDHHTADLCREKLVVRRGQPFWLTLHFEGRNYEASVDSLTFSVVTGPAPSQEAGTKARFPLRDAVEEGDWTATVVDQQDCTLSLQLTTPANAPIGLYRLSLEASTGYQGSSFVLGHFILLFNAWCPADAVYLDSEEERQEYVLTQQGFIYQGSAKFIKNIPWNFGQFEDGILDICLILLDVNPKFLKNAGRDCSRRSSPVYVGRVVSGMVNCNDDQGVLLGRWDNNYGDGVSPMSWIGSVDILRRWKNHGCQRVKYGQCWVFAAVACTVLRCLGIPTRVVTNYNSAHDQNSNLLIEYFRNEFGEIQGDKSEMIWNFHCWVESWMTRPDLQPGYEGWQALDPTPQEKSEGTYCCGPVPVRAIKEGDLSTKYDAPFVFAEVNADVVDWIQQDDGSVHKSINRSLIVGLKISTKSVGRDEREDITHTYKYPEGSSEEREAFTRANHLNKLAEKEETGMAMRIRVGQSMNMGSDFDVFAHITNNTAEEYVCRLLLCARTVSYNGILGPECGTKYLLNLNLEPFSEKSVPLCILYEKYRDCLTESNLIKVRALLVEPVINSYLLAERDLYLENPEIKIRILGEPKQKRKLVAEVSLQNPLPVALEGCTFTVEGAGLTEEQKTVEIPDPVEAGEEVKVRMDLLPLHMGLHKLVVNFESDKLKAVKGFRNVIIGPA
Description: Earlier disclosures had reported the synthesis and evaluation of a promising peptidic inhibitor of human TG2, (SEQ ID NO:1) Ac-Pro-Gln-Pro-DON-Leu-Pro-Phe-NH2. We now disclose a truncated analog that is easier to synthesize and has greater activity.
Characterization: (SEQ ID NO:3) Ac-Pro-DON-Leu-Pro-Phe-NH2 was characterized by the method of Hausch et al. (Hausch et al., Chem. Biol. (2003) 10, 225-231).

[2] = target: T2, bovine epidermal transglutaminase (Bos taurus, UniProt A6QP57); details: cited from earlier work
T2 sequence (A6QP57 1-691): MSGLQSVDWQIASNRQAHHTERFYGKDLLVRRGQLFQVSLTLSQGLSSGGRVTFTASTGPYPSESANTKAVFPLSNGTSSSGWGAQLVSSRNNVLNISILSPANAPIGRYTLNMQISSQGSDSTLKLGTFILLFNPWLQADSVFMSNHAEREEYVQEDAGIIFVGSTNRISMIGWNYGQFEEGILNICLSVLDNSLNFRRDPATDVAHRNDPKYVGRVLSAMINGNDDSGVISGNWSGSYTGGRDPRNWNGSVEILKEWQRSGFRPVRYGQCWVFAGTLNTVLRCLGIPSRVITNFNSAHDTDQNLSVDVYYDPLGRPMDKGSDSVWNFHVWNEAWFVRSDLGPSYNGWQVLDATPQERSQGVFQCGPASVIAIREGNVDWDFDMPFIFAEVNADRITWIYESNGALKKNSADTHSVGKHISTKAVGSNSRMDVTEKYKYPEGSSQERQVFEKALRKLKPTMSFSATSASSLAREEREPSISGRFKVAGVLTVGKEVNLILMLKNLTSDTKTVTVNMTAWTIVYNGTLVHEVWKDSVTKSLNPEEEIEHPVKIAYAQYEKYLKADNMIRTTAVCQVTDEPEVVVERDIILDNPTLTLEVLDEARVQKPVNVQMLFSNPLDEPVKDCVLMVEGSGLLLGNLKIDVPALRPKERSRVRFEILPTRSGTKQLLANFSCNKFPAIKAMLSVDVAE

[3] = target: T3, recombinant human tissue transglutaminase (Homo sapiens, UniProt P21980); assay: tTGase inhibition assay, residual activity by glutamate dehydrogenase coupled assay; format: biochemical; details: dihydroisoxazoles, Table 1
T3 construct: made in house
T3 sequence (P21980 1-687): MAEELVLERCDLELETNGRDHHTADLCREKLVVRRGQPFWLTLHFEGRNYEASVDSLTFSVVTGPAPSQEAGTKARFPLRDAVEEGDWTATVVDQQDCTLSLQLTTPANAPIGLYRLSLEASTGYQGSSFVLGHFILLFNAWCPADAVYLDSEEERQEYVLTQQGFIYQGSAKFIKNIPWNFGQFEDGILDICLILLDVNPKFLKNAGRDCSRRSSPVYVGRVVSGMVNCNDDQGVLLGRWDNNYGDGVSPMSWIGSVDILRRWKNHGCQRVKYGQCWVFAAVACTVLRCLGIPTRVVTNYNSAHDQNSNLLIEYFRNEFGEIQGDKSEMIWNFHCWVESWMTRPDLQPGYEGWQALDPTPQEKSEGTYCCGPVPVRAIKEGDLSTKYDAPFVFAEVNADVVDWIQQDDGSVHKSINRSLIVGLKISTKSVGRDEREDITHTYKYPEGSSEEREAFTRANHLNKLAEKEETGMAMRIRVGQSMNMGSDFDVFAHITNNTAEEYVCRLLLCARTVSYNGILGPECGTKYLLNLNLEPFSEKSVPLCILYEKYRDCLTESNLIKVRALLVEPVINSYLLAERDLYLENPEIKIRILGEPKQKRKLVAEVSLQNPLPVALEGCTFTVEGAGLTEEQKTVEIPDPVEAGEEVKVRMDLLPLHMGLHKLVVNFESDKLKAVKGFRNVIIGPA

human TG2 [4] = target: T1, human TG2; details: cited from earlier work
[5] = target: T4, human TG2 (tissue transglutaminase, transglutaminase 2) (human, UniProt P21980 1-687, limits assumed); assay: TG2 enzyme inactivation kinetics by the method of Hausch et al.
T4 construct: also called tTGase; tTG
T4 sequence (looked up): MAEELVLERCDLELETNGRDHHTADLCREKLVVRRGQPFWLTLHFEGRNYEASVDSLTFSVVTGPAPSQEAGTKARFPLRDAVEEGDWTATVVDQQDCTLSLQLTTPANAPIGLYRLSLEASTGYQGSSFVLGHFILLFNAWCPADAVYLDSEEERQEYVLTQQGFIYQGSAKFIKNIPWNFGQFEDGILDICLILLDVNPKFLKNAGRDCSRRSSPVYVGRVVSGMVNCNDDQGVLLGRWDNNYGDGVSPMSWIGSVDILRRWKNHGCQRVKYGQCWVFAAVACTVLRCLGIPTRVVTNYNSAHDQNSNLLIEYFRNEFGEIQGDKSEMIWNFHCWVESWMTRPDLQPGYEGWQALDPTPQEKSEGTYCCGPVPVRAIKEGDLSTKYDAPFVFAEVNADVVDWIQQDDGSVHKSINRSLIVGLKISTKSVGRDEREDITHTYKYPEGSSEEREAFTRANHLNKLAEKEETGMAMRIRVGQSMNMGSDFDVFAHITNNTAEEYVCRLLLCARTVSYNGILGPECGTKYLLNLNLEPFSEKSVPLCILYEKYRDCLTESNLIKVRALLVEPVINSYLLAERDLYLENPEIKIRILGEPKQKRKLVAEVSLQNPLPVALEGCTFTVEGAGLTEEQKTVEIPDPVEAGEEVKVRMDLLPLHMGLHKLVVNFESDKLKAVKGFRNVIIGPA

Molecule: CC(=O)N1CCC[C@H]1C(=O)N[C@H](CCC(=O)C=[N+]=[N-])C(=O)N[C@@H](CC(C)C)C(=O)N1CCC[C@H]1C(=O)N[C@@H](Cc1ccccc1)C(N)=O [Ac-Pro-DON-Leu-Pro-Phe-NH2] (Ac-P[X2]LPF-NH2)
- ki (human TG2 [1]): 0.5 min⁻¹
- ki/KI (human TG2 [1]): 8.3

Molecule: O=C(N[C@@H](Cc1ccccc1)C(=O)NCC1CC(Br)=NO1)OCc1ccccc1 (stereo partly drawn) [Compound 49, {(S)-1-[(3-Bromo-4,5-dihydro-isoxazol-5-ylmethyl)-carbamoyl]-2-phenyl-ethyl}-carbamic acid benzyl ester]
- inhibition of bovine epidermal transglutaminase [2]: is an inhibitor
- kinh [3]: 1.4 min⁻¹

Molecule: CC(=O)CSc1n(C)c(C)c(C)[n+]1C.[Cl-] [L682777]
- inhibition of human TG2 (human TG2 [4]): inhibits human TG2

B1: Ac-Pro-DON-Leu-Pro-Phe-NH2 (DON=6-diazo-5-oxo-norleucine) (peptide)
peptide: Ac-P[DON]LPF-NH2
SMILES: CC(=O)N1CCC[C@H]1C(=O)N[C@@H](CCC(=O)C=[N+]=[N-])C(=O)N[C@@H](CC(C)C)C(=O)N1CCC[C@H]1C(=O)N[C@@H](Cc1ccccc1)C(N)=O
notes: Position 2 is the non-natural residue DON; also called truncated analog of Ac-Pro-Gln-Pro-DON-Leu-Pro-Phe-NH2
- Ki [5]: 60 nM
- ki (inactivation rate constant) [5]: 0.5 min⁻¹
